For orientation: IC50 means the concentration at which inhibition is half-maximal. A high value points to weaker potency.

Several values for one entry are separate records, joined by “and”; a condition that tells them apart may be missing. Equal values may be shown once.

In the first assay the test system is HCV replicon. It is filed as cell-based.
Conditions: not given
Turning to `CC(C)NC(=O)Nc1ccc(-c2c(C#N)c3ccc(OCCCN4CCOCC4)cc3n2C2CCC2)cc1` [Compound 1306], the IC50 was in the range of 0.5 to 2 µM.

Consider `CCCCn1c(-c2cccc(NC(=O)NCCc3ccccc3)c2)c(C#N)c2ccc(OCC)cc21` [Compound 1024], for which the IC50 was below 0.5 µM.

Regarding `CCCCn1c(-c2cccc(NC(=O)OCCC)c2)c(C#N)c2ccc(OCC)cc21` [Compound 1022], the half-inhibitory concentration (IC50) was < 0.5 µM and > 2 µM.

For the compound `CCCN(c1ccc(-c2c(C#N)c3ccc(C(F)(F)F)cc3n2CC)cc1)S(=O)(=O)CC` [Compound 1007], the IC50 is below 0.5 µM.

As for `CCCn1c(-c2ccc(NS(=O)(=O)CC)cc2)c(C#N)c2cc(OC)ccc21` [Compound 996], the IC50 is < 0.5 µM and 0.5 to 2 µM.

With `CCOc1ccc2c(C#N)c(-c3ccc(NC(=O)OCCCCl)cc3)n(C3CCC3)c2c1` [Compound 977], the IC50 is below 0.5 µM.

Take `CCCNC(=O)Nc1ccc(-c2c(C#N)c3ccc(OC(F)F)cc3n2C2CCC2)cc1` [Compound 1187]: the IC50 lay in the range of 0.5 to 2 µM.

The compound `CCCOc1ccc2c(C#N)c(-c3ccc(NC(=O)OC(C)CC)cc3)n(C(C)C)c2c1` (stereo not drawn) [Compound 1246] yielded an IC50 below 0.5 µM.

Compound `CCn1c(-c2ccc(NC(=O)OC(C)(C)C)cc2)c(C#N)c2ccc(Br)cc21` [Compound 1048] had an IC50 of 0.5 to 2 µM.

Turning to `CCCCNC(=O)Nc1ccc(-c2c(C#N)c3cc(OC)ccc3n2CCC)cc1` [Compound 1008], the IC50 lay within 0.5 to 2 µM.

`CCOC(=O)Nc1ccc(-c2c(C#N)c3ccc(OC)cc3n2CC2CC2)cc1` [Compound 984] showed an IC50 of 0.5 to 2 µM.

As for `CC(C)OC(=O)Nc1ccc(-c2c(C#N)c3ccc(Oc4ncccn4)cc3n2C2CCC2)cc1` [Compound 2151], the IC50 is below 0.5 µM.

Compound `CCCNC(=O)Nc1ccc(-c2c(C#N)c3ccc(OCC)cc3n2CCC)cc1` [Compound 1095] returned a 50% inhibitory concentration (IC50) below 0.5 µM.

`C[C@@H](OC(=O)Nc1ccc(-c2cc3ccc(Oc4ncccn4)cc3n2C2CCC2)cc1)C1CC1` [Compound 2341] had an IC50 below 0.5 µM.

In turn, `CCOc1ccc2c(c1)c(C#N)c(-c1ccc(NC(=O)OC(C)C3CC3)cc1)n2C1CCC1` (stereo not drawn) [Compound 1296] showed an IC50 of 0.5 to 2 µM.

Compound `CCCOC(=O)Nc1ccc(-c2c(C#N)c3ccc(OCC)cc3n2C2CCCC2)cc1` [Compound 1128] yielded a 50% inhibitory concentration (IC50) below 0.5 µM.

For `CCOc1ccc2c(C#N)c(-c3ccc(NC(=O)OC(C)C)cc3)n(CC3CCC3)c2c1` [Compound 1169], the half-inhibitory concentration (IC50) was below 0.5 µM.

`CCn1c(-c2ccc(NC(=O)OC(C)C)cc2)c(C#N)c2cc3c(cc21)OCO3` [Compound 1040] had an IC50 of 0.5 to 2 µM.

For the compound `CCN(c1ccc(-c2c(C#N)c3ccc(C(F)(F)F)cc3n2CC)cc1)S(C)(=O)=O` [Compound 1003], the IC50 fell in the range of 0.5 to 2 µM.

In the case of `CCOc1ccc2c(C#N)c(-c3ccc(NC(=O)OCC4(C)CC4)cc3)n(C3CCC3)c2c1` [Compound 1208], the IC50 is below 0.5 µM.

In the case of `CCOc1ccc2c(c1)c(C#N)c(-c1ccc(NC(=O)NC(C)C)cc1)n2C1CCC1` [Compound 1224], the IC50 lay within 0.5 to 2 µM.

As for `CCOc1ccc2c(C#N)c(-c3ccc(NC(=O)OCCF)cc3)n(CC(C)C)c2c1` [Compound 1059], the IC50 is 0.5 to 2 µM.

Regarding `CCOc1ccc2c(c1)c(C#N)c(-c1ccc(NC(=O)NC3CCCC3)cc1)n2C1CCC1` [Compound 1226], the IC50 was below 0.5 µM.

As for `CCCNC(=O)Nc1ccc(-c2c(C#N)c3cc(OC)ccc3n2CCC)cc1` [Compound 1000], the half-inhibitory concentration (IC50) is 0.5 to 2 µM.

Regarding `COC(=O)c1ccc2c(C#N)c(-c3ccc(NC(=O)OC(C)C)cc3)n(C3CCC3)c2c1` [Compound 1300], the IC50 is below 0.5 µM.

`CCCNC(=O)Nc1ccc(-c2c(C#N)c3cc(OC)ccc3n2CC)cc1` [Compound 1010] returned an IC50 of 0.5 to 2 µM.

In turn, `CCOc1ccc2c(c1)c(C#N)c(-c1ccc(NC(=O)NCCc3ccccc3)cc1)n2C1CCC1` [Compound 1227] returned an IC50 below 0.5 µM.

In turn, `CCCS(=O)(=O)Nc1ccc(-c2c(C#N)c3cc(OC)ccc3n2C2CCC2)cc1` [Compound 1181] came in with an IC50 of 0.5 to 2 µM.

On to `CC(OC(=O)Nc1ccc(-c2c(C#N)c3ccc(OCCn4ccnc4)cc3n2C2CCC2)cc1)C1CC1` (stereo not drawn) [Compound 1328], for which the IC50 was below 0.5 µM.

On to `CCn1c(-c2ccc(NC(=O)C3CC3)cc2)c(C#N)c2ccc(OCCn3cnnc3)cc21` [Compound 1092], for which the IC50 is 0.5 to 2 µM.

On to “[4-(3-cyano-1-cyclobutyl-6-cyclopropyl-1H-indol-2-yl)-phenyl]-carbamic acid tert-butyl ester [Compound 2513]”, for which the 50% inhibitory concentration (IC50) was in the range of 0.5 to 2 µM.

The compound `CCNC(=O)Nc1ccc(-c2c(C#N)c3ccc(OC)cc3n2CC)cc1F` [Compound 909] returned an IC50 of 0.5 to 2 µM.

As to `CCOc1ccc2c(c1)c(C#N)c(-c1ccc(NC(=O)OC(C)C)cc1)n2C1CCC1` [Compound 1195], the IC50 was below 0.5 µM.

`CCn1c(-c2ccc(NC(=O)OC)c(F)c2)c(C#N)c2ccc(OC)cc21` [Compound 875] yielded an IC50 of 0.5 to 2 µM.

Consider `CCOc1ccc2c(C#N)c(-c3ccc(NC(=O)OC(C)C)cc3)n(C(C)C)c2c1` [Compound 1058], for which the IC50 is below 0.5 µM.

In turn, `CCCNC(=O)Nc1ccc(-c2c(C#N)c3ccc(OCC)cc3n2C2CCCC2)cc1` [Compound 1144] registered an IC50 below 0.5 µM.

On to `CCOc1ccc2c(C#N)c(-c3ccc(NC(=O)NC(C)C)cc3)n(C(C)C)c2c1` [Compound 1100], for which the IC50 is below 0.5 µM.

`CCn1c(-c2ccc(NS(=O)(=O)C3CC3)c(F)c2)c(C#N)c2ccc(OC)cc21` [Compound 873]: the IC50 was above 2 µM.

`CCn1c(-c2cccc(N3CCNC3=O)c2)c(C#N)c2ccc(OCCCN3CCOCC3)cc21` [Compound 1068]: the IC50 fell in the range of 0.5 to 2 µM.

`CCOc1ccc2c(C#N)c(-c3ccc(NC(=O)OC(C)COC)cc3)n(C3CCC3)c2c1` (stereo not drawn) [Compound 1313] came in with an IC50 below 0.5 µM.

In the case of `CCCOc1ccc2c(C#N)c(-c3ccc(NC(=O)NC4CC4)cc3)n(C(C)C)c2c1` [Compound 1325], the IC50 is below 0.5 µM.

As for `CC(C)NC(=O)Nc1ccc(-c2c(C#N)c3ccc(OCc4cccnc4)cc3n2C2CCC2)cc1` [Compound 1212], the IC50 was below 0.5 µM.

In turn, `CCOc1ccc2c(C#N)c(-c3ccc(NC(=O)OCc4ccccc4)cc3)n(CC3CC3)c2c1` [Compound 1155] came in with a half-maximal inhibitory concentration (IC50) of 0.5 to 2 µM.

With `CC(C)OC(=O)Nc1ccc(-c2c(C#N)c3ccc(OCCN4CCOCC4)cc3n2C2CCC2)cc1` [Compound 1271], the concentration for half-maximal inhibition (IC50) is below 0.5 µM.

`N#Cc1cn(CC2CC2)c2cc(OC(F)F)ccc12` [Compound 940] yielded a half-maximal inhibitory concentration (IC50) of 0.5 to 2 µM.

In turn, `CCCn1c(-c2ccc(NS(=O)(=O)CC)cc2)c(C#N)c2ccc(OCc3ccccc3)cc21` [Compound 922] yielded an IC50 of 0.5 to 2 µM.

For `CCCn1c(-c2ccc(NC(=O)OC(C)C)cc2)c(C#N)c2ccc(OCC)cc21` [Compound 1056], the IC50 is below 0.5 µM.

In the case of `CCNC(=O)Nc1ccc(-c2c(C#N)c3ccc(OCCF)cc3n2CC)cc1` [Compound 954], the IC50 was in the range of 0.5 to 2 µM.

For `CCn1c(-c2ccc(NS(=O)(=O)C3CC3)cc2)c(C#N)c2ccc(OC(F)F)cc21` [Compound 929], the 50% inhibitory concentration (IC50) was below 0.5 µM.

Compound `CCn1c(-c2ccc(NP(=O)(OC)OC)cc2)c(C#N)c2ccc(OC)cc21` [Compound 944] displayed an IC50 of 0.5 to 2 µM.

The compound `CCCOc1ccc2c(C#N)c(-c3ccc(NC(=O)OC4CCC4)cc3)n(C(C)C)c2c1` [Compound 1247] displayed a half-inhibitory concentration (IC50) below 0.5 µM.

Take `CCOC(=O)Nc1ccc(-c2c(C#N)c3ccc(OC)cc3n2C2CCC2)cc1` [Compound 1073]: the 50% inhibitory concentration (IC50) lay within 0.5 to 2 µM.

As to `CCOc1ccc2c(C#N)c(-c3ccc(N4CCCS4(=O)=O)cc3)n(C3CCC3)c2c1` [Compound 980], the IC50 was above 2 µM.

`CCOc1ccc2c(c1)c(C#N)c(-c1ccc(NC(=O)OC(C)COC)cc1)n2C1CCC1` (stereo not drawn) [Compound 1299] came in with a concentration for half-maximal inhibition (IC50) of 0.5 to 2 µM.

Turning to `CCN(C)CCOc1ccc2c(C#N)c(-c3ccc(NC(=O)NC(C)C)cc3)n(C3CCC3)c2c1` [Compound 1320], the IC50 is below 0.5 µM.

Regarding `CCOc1ccc2c(C#N)c(-c3ccc(NC(=O)NC(C)C)cc3)n(C3CCC3)c2c1` [Compound 1080], the IC50 was below 0.5 µM.

With `C=CCNC(=O)Nc1ccc(-c2c(C#N)c3ccc(OCCF)cc3n2CC)cc1` [Compound 958], the IC50 was 0.5 to 2 µM and < 0.5 µM.

As for `N#Cc1c(-c2ccc(NC(=O)OC3CCCC3)cc2)n(C2CCC2)c2cc(OCc3cccnc3)ccc12` [Compound 1219], the IC50 is below 0.5 µM.

Turning to `CCn1c(-c2ccc(NC(=O)OC(C)C)cc2)c(C#N)c2ccc(OCCF)cc21` [Compound 946], the IC50 is below 0.5 µM.

Compound `COc1ccc2c(c1)c(C#N)c(-c1ccc(NC(=O)NC(C)C)cc1)n2C1CCC1` [Compound 1163] came in with an IC50 of 0.5 to 2 µM.

In turn, `CCn1c(-c2ccc(NS(=O)(=O)CCCCl)cc2)c(C#N)c2ccc(OC(F)F)cc21` [Compound 930] gave an IC50 below 0.5 µM.

`CCOc1ccc2c(c1)c(C#N)c(-c1ccc(NC(=O)OC(C)CC)cc1)n2C1CCC1` (stereo not drawn) [Compound 1323] came in with an IC50 below 0.5 µM.

With `CC(C)OC(=O)Nc1ccc(-c2c(C#N)c3ccc(OCCN4CCSCC4)cc3n2C2CCC2)cc1` [Compound 1273], the IC50 lay within 0.5 to 2 µM.

Turning to `COCCN(C)CCOc1ccc2c(C#N)c(-c3ccc(NC(=O)NC(C)C)cc3)n(C3CCC3)c2c1` [Compound 1321], the IC50 lay within 0.5 to 2 µM.

Regarding `CCCn1c(-c2ccc(NC(=O)OCCF)cc2)c(C#N)c2ccc(OCC)cc21` [Compound 1064], the IC50 lay within 0.5 to 2 µM.

With `CCCn1c(-c2ccc(NC(=O)NCC)cc2)c(C#N)c2cc(OC)ccc21` [Compound 999], the IC50 is 0.5 to 2 µM.

The test system of another assay is wild-type poliovirus. Format: cell-based. The following applies: 1 μM compound; HeLa cells infected with wild-type poliovirus at MOI 0.1, treated one day; CPE score.
On to `COc1ccc2c(C#N)c(C)n(-c3ccc4c(c3)OCO4)c2c1` [Compound 24], for which the “WT-PV CPE (1 μM)*” value is recorded as 2.

In the case of `COc1ccc(-n2cc(C#N)c3ccc(OC)cc32)cc1` [Compound 4], the “WT-PV CPE (1 μM)*” value turned out to be 1.

Consider `CCn1cc(C#N)c2ccc(OC(C)C)cc21` [Compound 10], for which the “WT-PV CPE (1 μM)*” value stood at 2.

Staying with this assay, now noted: 10 μM compound; HeLa cells infected with wild-type poliovirus at MOI 0.1, treated one day; CPE score.
As to `COc1ccc2c(C#N)c(C)n(-c3ccc4c(c3)OCO4)c2c1` [Compound 24], the “WT-PV CPE (10 μM)*” value is on record as 2.

In the case of `COc1ccc(-n2cc(C#N)c3ccc(OC)cc32)cc1` [Compound 4], the “WT-PV CPE (10 μM)*” value amounted to 2.

Consider `CCn1cc(C#N)c2ccc(OC(C)C)cc21` [Compound 10], for which the “WT-PV CPE (10 μM)*” value came out at 2.

The assay is the same for the next values; noted with them: 100 μM compound; HeLa cells infected with wild-type poliovirus at MOI 0.1, treated one day; CPE score.
In the case of `COc1ccc2c(C#N)c(C)n(-c3ccc4c(c3)OCO4)c2c1` [Compound 24], the “WT-PV CPE (100 μM)*” value was found to be 3.

Turning to `COc1ccc(-n2cc(C#N)c3ccc(OC)cc32)cc1` [Compound 4], the “WT-PV CPE (100 μM)*” value worked out at 3.

For `CCn1cc(C#N)c2ccc(OC(C)C)cc21` [Compound 10], the “WT-PV CPE (100 μM)*” value is recorded as 3.

These data come from patent US7973069B2 (PTC Therapeutics, Inc., priority 2004, dated 2011).
